From patent US6949544B2, “Inhibitors of c-Jun N-terminal kinases (JNK) and other protein kinases” (Vertex Pharmaceuticals Incorporated, priority 2001, dated 2005)

How the values were obtained:
Assay type in all cases: biochemical
activated JNK3 = biological target: T1, activated JNK3 (Homo sapiens, UniProt P53779); experiment: JNK inhibition assay (spectrophotometric coupled-enzyme assay); conditions: 10 nM activated JNK3, 10 μM ATP; read-out: Activity in the JNK3 Inhibition Assay (Ki rating A-C)
T1 construct: One such construct encodes amino acid residues Ser40-Glu402 of JNK3α1 and is preceded by Met and Gly residues; Met-Gly (initiator methionine and added glycine) (N); made in house; host or cells: E. coli BL21 (DE3)
T1 sequence (P53779 40-402): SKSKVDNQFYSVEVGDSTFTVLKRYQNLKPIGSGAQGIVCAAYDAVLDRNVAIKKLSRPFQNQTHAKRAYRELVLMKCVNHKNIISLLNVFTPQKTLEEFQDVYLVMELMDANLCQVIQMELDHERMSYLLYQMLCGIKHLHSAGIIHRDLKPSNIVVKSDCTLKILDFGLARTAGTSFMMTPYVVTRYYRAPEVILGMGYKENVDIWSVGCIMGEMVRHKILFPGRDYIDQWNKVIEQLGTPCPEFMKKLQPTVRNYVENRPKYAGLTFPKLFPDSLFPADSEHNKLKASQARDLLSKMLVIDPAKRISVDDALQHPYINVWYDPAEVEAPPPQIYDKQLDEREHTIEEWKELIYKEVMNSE
Description: A BLAST search of the EST database using the published JNK3α1 cDNA as a query identified an EST clone (#632588) that contained the entire coding sequence for human JNK3α1. Polymerase chain reactions (PCR) using pfu polymerase (Strategene) were used to introduce restriction sites into the cDNA for cloning into the pET-15B expression vector at the NcoI and BamHI sites. The protein was expressed in E. coli. […] This truncation corresponds to Ser 2 of JNK1 and JNK2 proteins, and is preceded by a methionine (initiation) and a glycine residue. The glycine residue was added in order to introduce an NcoI site for cloning into the expression vector. In addition, systematic C-terminal truncations were performed by PCR to identify a construct that give rise to diffraction-quality crystals.
5 mg of JNK3 was diluted to 0.5 mg/ml in 50 mM HEPES buffer, pH 7.5, containing 100 mM NaCl, 5 mM DTT, 20 mM MgCl2 and 1 mM ATP. GST-MKK7(DD) was added at a molar ratio of 1:2.5 GST-MKK7:JNK3. After incubation for 30 minutes at 25° C., the reaction mixture was concentrated 5-fold by ultrafiltration in a Centriprep-30 (Amicon, Beverly, Mass.), diluted to 10 ml and an additional 1 mM ATP added. This procedure was repeated three times to remove ADP and replenish ATP. The final addition of ATP was 5 mM and the mixture incubated overnight at 4° C.
The activated JNK3/GST-MKK7(DD) reaction mixture was exchanged into 50 mM HEPES buffer, pH 7.5, containing 5 mM DTT and 5% glycerol (w/v) by dialysis or ultrafiltration. The reaction mixture was adjusted to 1.1 M potassium phosphate, pH 7.5, and purified by hydrophobic interaction chromatography (at 25° C.) using a Rainin Hydropore column. […] Activated JNK3 (i.e. doubly phosphorylated JNK3) was stored at −70° C. at 0.25-1 mg/ml.
Compounds were assayed for the inhibition of JNK3 by a spectrophotometric coupled-enzyme assay. In this assay, a fixed concentration of activated JNK3 (10 nM) was incubated with various concentrations of a potential inhibitor dissolved in DMSO for 10 minutes at 30° C. in a buffer containing 0.1 M HEPES buffer, pH 7.5, containing 10 mM MgCl2, 2.5 mM phosphoenolpyruvate, 200 μM NADH, 150 μg/mL pyruvate kinase, 50 μg/mL lactate dehydrogenase, and 200 μM EGF receptor peptide. […] The reaction was initiated by the addition of 10 μM ATP and the assay plate is inserted into the spectrophotometer's assay plate compartment that was maintained at 30° C. The decrease of absorbance at 340 nm was monitored as a function of time. The rate data as a function of inhibitor concentration was fitted to competitive inhibition kinetic model to determine the Ki.

CDK-2/Cyclin A = CDK-2/Cyclin A (Homo sapiens, UniProt P24941); experiment: CDK2 inhibition assay (standard coupled enzyme assay); conditions: 25 nM CDK-2/Cyclin A; read-out: CDK2 Inhibitory Activity (Ki rating A-C)
Experimental: Compounds were screened in the following manner for their ability to inhibit CDK2 using a standard coupled enzyme assay (Fox et al (1998) Protein Sci 7, 2249).
To an assay stock buffer solution containing 0.1M HEPES 7.5, 10 mM MgCl2, 1 mM DTT, 25 mM NaCl, 2.5 mM phosphoenolpyruvate, […], […], […], […], and 100 μM peptide ([…], American Peptide, Sunnyvale, Calif.) was added a DMSO solution of a compound of the present invention to a final concentration of 30 μM. The resulting mixture was incubated at 30° C. for 10 minutes.
The reaction was initiated by the addition of 10 μL of CDK-2/Cyclin A stock solution to give a final concentration of 25 nM in the assay. The rates of reaction were obtained by monitoring absorbance at 340 nm over a 5-minute read time at 30° C. using a BioRad Ultramark plate reader (Hercules, Calif.). The Ki values were determined from the rate data as a function of inhibitor concentration.

[1] = biological target: T2, Lck kinase purified from bovine thymus (Bos taurus, UniProt Q3ZCM0); experiment: Lck inhibition assay (33P incorporation into poly Glu-Tyr); conditions: 10 μM ATP; read-out: Activity in the Lck Inhibition Assay (Ki rating A-C)
T2 construct: Lck kinase purified from bovine thymus; purchased Upstate Biotechnology 14-106; host or cells: bovine thymus (tissue-purified)
T2 sequence (Q3ZCM0 1-509): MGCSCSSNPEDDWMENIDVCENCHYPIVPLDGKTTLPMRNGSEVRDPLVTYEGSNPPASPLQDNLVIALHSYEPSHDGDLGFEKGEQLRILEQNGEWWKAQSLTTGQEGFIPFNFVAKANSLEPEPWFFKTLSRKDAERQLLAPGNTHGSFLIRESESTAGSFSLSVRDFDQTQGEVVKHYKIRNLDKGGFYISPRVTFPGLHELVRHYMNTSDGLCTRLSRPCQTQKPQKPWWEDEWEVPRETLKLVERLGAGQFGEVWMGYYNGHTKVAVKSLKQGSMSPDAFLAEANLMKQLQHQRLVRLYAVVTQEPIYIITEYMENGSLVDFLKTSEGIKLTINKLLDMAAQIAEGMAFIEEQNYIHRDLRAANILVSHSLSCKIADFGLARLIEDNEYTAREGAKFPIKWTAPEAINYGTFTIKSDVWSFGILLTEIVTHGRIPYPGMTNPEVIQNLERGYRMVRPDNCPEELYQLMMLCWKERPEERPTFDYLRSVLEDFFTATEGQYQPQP
Experimental: The compounds were assayed as inhibitors of Lck kinase purified from bovine thymus (from Upstate Biotechnology, cat. no. 14-106). Lck kinase activity was monitored by following the incorporation of ^33P from ATP into the tyrosine of a random poly Glu-Tyr polymer substrate of composition, Glu:Tyr=4:1 (Sigma, cat. no. P-0275). The following were the final concentrations of the assay components: 0.05 M HEPES, pH 7.6, 10 mM MgCl2, 2 mM DTT, 0.25 mg/ml BSA, 10 μM ATP (1-2 μCi ^33P-ATP per reaction), 5 mg/ml poly Glu-Tyr, and 1-2 units of lck kinase. In a typical assay, all the reaction components with the exception of ATP were pre-mixed and aliquoted into assay plate wells. […] The assay plate was incubated at 30° C. for 10 min before initiating the reaction with ^33P-ATP. After 20 min of reaction, the reactions were quenched with 150 μl of 10% trichloroacetic acid (TCA) containing 20 mM Na3PO4. The quenched samples were then transferred to a 96-well filter plate (Whatman, UNI-Filter GF/F Glass Fiber Filter, cat no. 7700-3310) installed on a filter plate vacuum manifold. Filter plates were washed four times with 10% TCA containing 20 mM Na3PO4 and then 4 times with methanol. 200 μl of scintillation fluid was then added to each well. The plates were sealed and the amount of radioactivity associated with the filters was quantified on a TopCount scintillation counter.

| Structure (SMILES) | Ki (activated JNK3) [nM] | Ki (CDK-2/Cyclin A) [µM] | Ki [1] [nM] |
| --- | --- | --- | --- |
| COc1cc(-c2ccnc(Nc3cccc(F)c3)n2)cc(OC)c1OCCN1CCOCC1 [Compound I-44] | < 100 | > 5 |  |
| COc1cc(-c2ccnc(Nc3ccccc3)c2)cc(OC)c1OC [Compound I-155] | 100 to 1000 |  |  |
| COc1cc(-c2ccnc(Nc3cc(C)cc(C)c3)n2)cc(OC)c1OC [Compound I-24] | 100 to 1000 | > 5 |  |
| COc1ccccc1-c1cccc(Nc2nccc(-c3ccc(OC)c(OC)c3OC)n2)c1 [II-41] |  |  | 100 to 1000 |
| COc1ccc(-c2ccnc(Nc3cccc(F)c3)n2)c(OC)c1OC [II-5] |  |  | > 1000 |
| COc1cc(-c2ccnc(Nc3cccc(OCc4ccccc4)c3)n2)cc(OC)c1OC [Compound I-56] | > 1000 | > 5 |  |
| COc1cc(-c2ccnc(Nc3c(F)cccc3F)n2)cc(OC)c1OC [Compound I-2] | 100 to 1000 | > 5 |  |
| COc1ccc(-c2ccnc(Nc3cccc(Oc4ccccc4)c3)n2)c2c1OCCO2 [II-15] |  |  | 100 to 1000 |
| COc1c(-c2ccnc(Nc3cccc(Oc4ccccc4)c3)n2)ccc2c1OCCO2 [II-17, [4-(5-Methoxy-2,3-dihydro-benzo[1,4]dioxin-6-yl)-pyrimidin-2-yl]-(3-phenoxyphenyl)-amine] |  |  | > 1000 |
| COc1ccc(-c2ccnc(Nc3cccc(Oc4ccccc4)c3)n2)c(OC)c1OCCN1CCOCC1 [II-19] |  |  | > 1000 |
| COc1ccc(-c2ccnc(Nc3cccc(-c4cccc(F)c4)c3)n2)c(OC)c1OC [II-36] |  |  | < 100 |
| COc1cccc(Nc2nccc(-c3ccc(OC)c(OC)c3OC)n2)c1 [II-6] |  |  | 100 to 1000 |
| COc1ccc(-c2ccnc(Nc3ccc([N+](=O)[O-])cc3)n2)c(OC)c1OC [II-4] |  |  | 100 to 1000 |
| COc1cc(-c2ccnc(Nc3ccc([N+](=O)[O-])cc3)n2)cc(OC)c1OC [Compound I-11] | < 100 | > 5 |  |
| COc1cc(-c2ccnc(Nc3c(C)cccc3C)n2)cc(OC)c1OC [Compound I-8] | > 1000 | > 5 |  |
| COc1cc(-c2ccnc(Nc3ccc(C)c(C)c3)n2)cc(OC)c1OC [Compound I-25] | < 100 |  |  |
| COc1cc(-c2ccnc(Nc3cccc(Cl)c3)c2)cc(OC)c1OC [Compound I-146, (3-Chlorophenyl)-[4-(3,4,5-trimethoxyphenyl)-pyridin-2-yl]-amine] | 100 to 1000 |  |  |
| COc1cc(-c2ccnc(Nc3cccc(F)c3)c2)cc(OC)c1OC [Compound I-154] | 100 to 1000 |  |  |
| COc1cc(-c2ccnc(Nc3cc(Cl)cc(Cl)c3)n2)cc(OC)c1OC [Compound I-23] | < 100 | > 5 |  |
| COc1cc(-c2ccnc(Nc3ccccc3Cl)c2)cc(OC)c1OC [Compound I-147] | 100 to 1000 |  |  |
| CCc1nnc(Nc2nccc(-c3cc(OC)c(OC)c(OC)c3)n2)s1 [Compound I-84] | > 1000 |  |  |
| COc1cc(-c2ccnc(Nc3ccccc3C)n2)cc(OC)c1OC [Compound I-16] | < 100 | > 5 |  |
| COc1ccc(-c2ccnc(Nc3n[nH]c4ccccc34)n2)c(OC)c1OC [II-56] |  | > 5 |  |
| COc1cc(-c2ccnc(Nc3c(F)cccc3F)c2)cc(OC)c1OC [Compound I-151] | 100 to 1000 |  |  |
| COc1cc(-c2ccnc(Nc3ccccc3C)n2)cc(OC)c1OC [Compound I-7] | 100 to 1000 | > 5 |  |
| COc1ccc(Nc2nccc(-c3cc(OC)c(OC)c(OC)c3)n2)cc1 [Compound I-21] | < 100 |  |  |
| COc1cc(-c2ccnc(Nc3ccc(F)cc3)n2)cc(OC)c1OC [Compound I-14] | > 1000 |  |  |

Further lines, results first:

| Ki (activated JNK3) [nM] | Ki (CDK-2/Cyclin A) [µM] | Ki [1] [nM] | Structure (SMILES) |
| --- | --- | --- | --- |
| 100 to 1000 | > 5 |  | COc1ccc(Nc2nccc(-c3cc(OC)c4c(c3)OCO4)n2)cc1 [Compound I-33] |
| 100 to 1000 | > 5 |  | COc1cccc(Nc2nccc(-c3cc(OC)c4c(c3)OCO4)n2)c1 [Compound I-32] |
| 100 to 1000 | > 5 |  | COc1c(Cl)cc(-c2ccnc(Nc3cccc(F)c3)n2)cc1Cl [Compound I-46] |
| 100 to 1000 | > 5 |  | COc1cc(-c2ccnc(Nc3ccccc3)n2)cc2c1OCO2 [Compound I-26, [4-(7-Methoxy-benzo[1,3]dioxol-5-yl)-pyrimidin-2-yl]-phenyl-amine] |
| < 100 |  |  | COc1c(C)cc(-c2ccnc(Nc3cccc(F)c3)n2)cc1C [Compound I-47] |
| < 100 | > 5 |  | COc1cc(-c2ccnc(Nc3ccccc3)n2)cc(OC)c1OC [Compound I-15] |
| < 100 | > 5 |  | COc1cc(-c2ccnc(Nc3cccc(C(F)(F)F)c3)n2)cc(OC)c1OC [Compound I-19] |
| > 1000 |  |  | COc1cc(-c2ccnc(Nc3cccc(C(F)(F)F)c3)n2)cc2c1OCO2 [Compound I-31] |
| < 100 | > 5 |  | CCOc1c(OC)cc(-c2ccnc(Nc3cccc(C)c3)n2)cc1OC [Compound I-54] |
| > 1000 |  |  | COc1cc(-c2ccnc(Nc3cccc(Cl)c3)n2)cc2c1OCO2 [Compound I-30] |
| < 100 | > 5 |  | COc1c(Cl)cc(-c2ccnc(Nc3cccc(C)c3)n2)cc1Cl [Compound I-55] |
| 100 to 1000 |  |  | COc1cc(-c2ccnc(Nc3cccc(F)c3)n2)cc2c1OCO2 [Compound I-29] |
| < 100 | > 5 |  | CCOc1c(OC)cc(-c2ccnc(Nc3cccc(F)c3)n2)cc1OC [Compound I-45] |
| < 100 | > 5 |  | COc1cc(-c2ccnc(Nc3cccc(C)c3)n2)cc(OC)c1OCCN1CCOCC1 [Compound I-53] |
| > 1000 |  |  | COc1cc(-c2ccnc(Nc3cccc(C)c3)n2)cc2c1OCO2 [Compound I-27] |
| < 100 |  |  | COc1cc(-c2ccnc(Nc3ccc(C)cc3)n2)cc(OC)c1OC [Compound I-17] |
| < 100 | > 5 |  | CCOc1c(OC)cc(-c2ccnc(Nc3cccc(Cl)c3)n2)cc1OC [Compound I-40] |
| < 100 | > 5 |  | COc1cc(-c2ccnc(Nc3cccc([N+](=O)[O-])c3)n2)cc(OC)c1OC [Compound I-36] |
| 100 to 1000 |  |  | COc1cc(-c2ccnc(Nc3ccc(C)cc3)n2)cc2c1OCO2 [Compound I-28] |
